Measured values taken from publication PMC8672774, “Discovery of cell active macrocyclic peptides with on-target inhibition of KRAS signaling” (Chemical Science, 2021).

Columns and labels:
in vitro = conditions: human
rat mast cells = assay: Ex vivo rat mast cell degranulation and histamine release assay; conditions: for rMCD histamine release threshold: lowest concentration at which histamine release was observed, rat peritoneal mast cells, 30 min; for activation of mast cell degranulation (histamine release), in words: ex vivo, rat mast cells
Protocol: The reported rat mast cell degranulation (rMCD) value in Table 4 is a threshold for the lowest concentration at which a two-fold change in histamine release was observed.
In Vitro Rat M ast Cell Degranulation and H istamine Release Ass ess m ent: Peritoneal lavage was isolated
from Wister- Han rats as described in literature. In brief, animals were anesthetized with xylene followed
by an injection of about 10 mL of Tyrode buffer (12 mM NaHCO3, 127 mM NaCl, 5 mM KCl, 0.5 mM
NaH2PO4, 1 mM MgCl2, 5 mM Glucose and 10 mM HEPES, pH 7.4) into the peritoneal cavity. After a
gentle abdomen massage, peritoneal lavage was collected and centrifuged at 350 x g for 5 minutes. Cell
pellets were resuspended in Tyrode buffer with 10% heat inactivated rat serum to reach a final
Freshly isolated rat peritoneal cells were aliquoted to a 96 well tissue-
culture plate (100 µL per well).
peptides for 30 minutes at 37°C. After incubation, the plate was centrifuged at 350 x g for 2 minutes at
room temperature. Supernatant were collected and histamine concentration was measured by ELISA
(Neogen, Lansing, MI) following vendor’s instructions. Amount of histamine in the supernatant was
presented as ng/mL. A detection of histamine release was defined as the histamine concentration in
from 10 vehicle-control treated samples from the same animal). The lowest concentration that a

[1] = tested on: pERK and pAKT in AsPC-1 cells; assay: Western blot of KRAS signaling (pERK, pAKT) in AsPC-1 cells; assay type: cell-based; conditions: 1 hour and 16 hour time-points
Protocol: (§1) Western Blotting: Cells were seeded in 24-well poly-D-lysine coated plates and treated with the indicated peptides the next day. Following incubation, 100 μl of 1X Bolt™ LDS sample buffer supplemented with NuPAGE® sample reducing agent was added. Wells were scrapped using wide orifice
bath sonicator (QSonica).
(§2) onto nitrocellulose membranes using the Trans-Blot® Turbo™ semi-dry sy s te m ( Bio -rad), and blocked for 1 hour at room temperature with tris-buffered saline (TBS) Odyssey blocking buffer (Li- Cor). Blots were probed with the appropriate primary antibodies overnight at 4°C in Odyssey blocking buffer supplemented with 0.1% Tween-20, followed by the secondary antibodies IRDye® 680RD donkey anti-mouse IgG or IRDye® 800CW donkey anti-rabbit IgG (Li- Cor) for 1 hour at room temperature.
(§3) Fluorescent signals were imaged and quantified using Odyssey® CLx. Primary antibodies used were:
(D14E12) (Cell Signaling Technology, #8 24 2), phospho-IκBα (Ser32) (Cell Signaling Technology, #2 85 9) , IκBα (L35A5) (Cell Signaling Technology, #4 81 4) , NanoLuc (Promega, N7000) and pan-RAS (Sigma,
mM PMSF and Co mplete™ EDTA-free protease inhibitor cocktail (Roche) for 30 min with intermittent

[2] = tested on: MAPK and PI3K signaling in SK-MEL-28 cells (BRAF^V600E); assay: Western blot of MAPK and PI3K signaling in SK-MEL-28 cells; assay type: cell-based
Protocol: as §1
bath sonicator (QSonica).
as §2, §3

[3] = tested on: MAPK and PI3K signaling in A375 cells (BRAF^V600E); assay: Western blot of MAPK and PI3K signaling in A375 cells; assay type: cell-based
Protocol: as §1
bath sonicator (QSonica).
as §2, §3

| Compound | half-life at 1 µM (in vitro; HeLa cell homogenate) [h] | rMCD histamine release threshold (rat mast cells) [µM] | further results |
| --- | --- | --- | --- |
| CC[C@H](C)[C@@H]1NC(=O)[C@H](Cc2ccc(O)cc2)NC(=O)[C@H](CC(C)C)NC(=O)[C@@H]2CCCN2C(=O)[C@H](NC(=O)[C@H](CCCNC(=N)N)NC(=O)[C@H](CCCNC(=N)N)NC(=O)[C@H](CCCCN=[N+]=[N-])NC(C)=O)CSCSC[C@@H](C(=O)N[C@@H](CCCNC(=N)N)C(=O)N[C@@H](CCCNC(=N)N)C(N)=O)NC(=O)[C@H](C(C)C)NC(=O)[C@@H]2CCCN2C(=O)[C@](C)(CC(=O)O)NC(=O)[C@H](Cc2ccc(O)cc2)NC(=O)[C@H](CO)NC1=O [Compound 19] | 0.683 | – | – |
| CC[C@H](C)[C@@H]1NC(=O)[C@H](Cc2ccc(O)cc2)NC(=O)[C@H](CC(C)C)NC(=O)[C@@H]2CCCN2C(=O)[C@H](NC(=O)[C@H](CCCNC(=N)N)NC(=O)[C@H](CCCNC(=N)N)NC(=O)[C@H](CCCNC(=N)N)NC(=O)[C@H](CCCNC(=N)N)NC(=O)[C@H](CCCCN=[N+]=[N-])NC(C)=O)CSCSC[C@@H](C(=O)N[C@@H](CCCNC(=N)N)C(=O)N[C@@H](CCCNC(=N)N)C(=O)N[C@@H](CCCNC(=N)N)C(=O)N[C@@H](CCCNC(=N)N)C(N)=O)NC(=O)[C@H](C(C)C)NC(=O)[C@@H]2CCCN2C(=O)[C@H](CC(=O)O)NC(=O)[C@H](Cc2ccc(O)cc2)NC(=O)[C@H](CO)NC1=O [MP-6483] | – | ≥0.14 | inhibition of KRAS signaling (pERK, pAKT) by Western blot [1]: display cell-based inhibition |
| Cc1ccc(NC(=O)c2cccc(C(C)(C)C#N)c2)cc1Nc1ccc2ncn(C)c(=O)c2c1 [AZ628, reference compound] | – | – | inhibition of MAPK signaling in SK-MEL-28 [2]: inhibited MAPK signaling; inhibition of MAPK signaling in A375 [3]: inhibited MAPK signaling |
| CC[C@H](C)[C@@H]1NC(=O)[C@H](Cc2ccc(O)cc2)NC(=O)[C@H](CC(C)C)NC(=O)[C@@H]2CCCN2C(=O)[C@H](NC(=O)[C@H](CCCNC(=N)N)NC(=O)[C@H](CCCNC(=N)N)NC(=O)[C@H](CCCCN=[N+]=[N-])NC(C)=O)CSCSC[C@@H](C(=O)N[C@@H](CCCNC(=N)N)C(=O)N[C@@H](CCCNC(=N)N)C(N)=O)NC(=O)[C@H](C(C)C)NC(=O)[C@]2(C)CCCN2C(=O)[C@H](CC(=O)O)NC(=O)[C@H](Cc2ccc(O)cc2)NC(=O)[C@H](CO)NC1=O [Compound 20] | 2.23 | – | – |
| CC[C@H](C)[C@@H]1NC(=O)[C@H](Cc2ccc(O)cc2)NC(=O)[C@H](CC(C)C)NC(=O)[C@@H]2CCCN2C(=O)[C@H](NC(=O)[C@H](CCCNC(=N)N)NC(=O)[C@H](CCCNC(=N)N)NC(=O)[C@H](CCCNC(=N)N)NC(=O)[C@H](CCCCN=[N+]=[N-])NC(C)=O)CSCSC[C@@H](C(=O)N[C@@H](CCCNC(=N)N)C(=O)N[C@@H](CCCNC(=N)N)C(=O)N[C@@H](CCCNC(=N)N)C(N)=O)NC(=O)[C@H](C(C)C)NC(=O)[C@@H]2CCCN2C(=O)[C@H](CC(=O)O)NC(=O)[C@H](Cc2ccc(O)cc2)NC(=O)[C@H](CO)NC1=O [Compound 23] | – | ≥0.14 | – |
| CC[C@H](C)[C@@H]1NC(=O)[C@H](Cc2ccc(O)cc2)NC(=O)[C@H](CC(C)C)NC(=O)[C@@H]2CCCN2C(=O)[C@H](NC(=O)[C@H](CCCNC(=N)N)NC(=O)[C@H](CCCNC(=N)N)NC(=O)[C@H](CCCCN=[N+]=[N-])NC(C)=O)CSCSC[C@@](C)(C(=O)N[C@@H](CCCNC(=N)N)C(=O)N[C@@H](CCCNC(=N)N)C(N)=O)NC(=O)[C@H](C(C)C)NC(=O)[C@@H]2CCCN2C(=O)[C@H](CC(=O)O)NC(=O)[C@H](Cc2ccc(O)cc2)NC(=O)[C@H](CO)NC1=O [Compound 22] | 2 | – | – |
| N#CC(=C(/N)Sc1ccccc1N)/C(C#N)=C(/N)Sc1ccccc1N [Compound U0126, reference compound] | – | – | inhibition of MAPK signaling in SK-MEL-28 [2]: inhibited MAPK signaling; inhibition of MAPK signaling in A375 [3]: inhibited MAPK signaling |
| CC[C@H](C)[C@@H]1NC(=O)[C@H](Cc2ccc(O)cc2)NC(=O)[C@](C)(CC(C)C)NC(=O)[C@@H]2CCCN2C(=O)[C@H](NC(=O)[C@H](CCCNC(=N)N)NC(=O)[C@H](CCCNC(=N)N)NC(=O)[C@H](CCCCN=[N+]=[N-])NC(C)=O)CSCSC[C@@H](C(=O)N[C@@H](CCCNC(=N)N)C(=O)N[C@@H](CCCNC(=N)N)C(N)=O)NC(=O)[C@H](C(C)C)NC(=O)[C@@H]2CCCN2C(=O)[C@H](CC(=O)O)NC(=O)[C@H](Cc2ccc(O)cc2)NC(=O)[C@H](CO)NC1=O [Compound 15] | 1.9 | – | – |
| CC[C@H](C)[C@@H]1NC(=O)[C@](C)(Cc2ccccc2)NC(=O)[C@H](CC(C)C)NC(=O)[C@@H]2CCCN2C(=O)[C@H](NC(=O)[C@H](CCCNC(=N)N)NC(=O)[C@H](CCCNC(=N)N)NC(=O)[C@H](CCCCN=[N+]=[N-])NC(C)=O)CSCSC[C@@H](C(=O)N[C@@H](CCCNC(=N)N)C(=O)N[C@@H](CCCNC(=N)N)C(N)=O)NC(=O)[C@H](C(C)C)NC(=O)[C@@H]2CCCN2C(=O)[C@H](CC(=O)O)NC(=O)[C@H](Cc2ccc(O)cc2)NC(=O)[C@H](CO)NC1=O [Compound 16] | > 6.22 | – | – |
| CC[C@H](C)[C@@H]1NC(=O)[C@H](Cc2ccc(O)cc2)NC(=O)[C@H](CC(C)C)NC(=O)[C@@H]2CCCN2C(=O)[C@H](NC(=O)[C@H](CCCNC(=N)N)NC(=O)[C@H](CCCNC(=N)N)NC(=O)[C@H](CCCCN=[N+]=[N-])NC(C)=O)CSCSC[C@@H](C(=O)N[C@@H](CCCNC(=N)N)C(=O)N[C@@H](CCCNC(=N)N)C(N)=O)NC(=O)[C@H](C(C)C)NC(=O)[C@@H]2CCCN2C(=O)[C@H](CC(=O)O)NC(=O)[C@H](Cc2ccc(O)cc2)NC(=O)[C@](C)(CO)NC1=O [Compound 17] | 2.57 | – | – |
| CC[C@H](C)[C@@H]1NC(=O)[C@H](Cc2ccc(O)cc2)NC(=O)[C@H](CC(C)C)NC(=O)[C@@H]2CCCN2C(=O)[C@H](NC(=O)[C@H](CCCCN=[N+]=[N-])NC(C)=O)CSCSC[C@@H](C(N)=O)NC(=O)[C@H](C(C)C)NC(=O)[C@@H]2CCCN2C(=O)[C@H](CC(=O)O)NC(=O)[C@H](Cc2ccc(O)cc2)NC(=O)[C@H](CO)NC1=O [Compound 25] | – | >100 | activation of mast cell degranulation (histamine release), in words (rat mast cells): free from this potential liability |
| CC[C@H](C)[C@@H]1NC(=O)[C@H](Cc2ccc(O)cc2)NC(=O)[C@H](CC(C)C)NC(=O)[C@@H]2CCCN2C(=O)[C@H](NC(=O)[C@H](CCCNC(=N)N)NC(=O)[C@H](CCCNC(=N)N)NC(=O)[C@H](CCCCN=[N+]=[N-])NC(C)=O)CSCSC[C@@H](C(=O)N[C@@H](CCCNC(=N)N)C(=O)N[C@@H](CCCNC(=N)N)C(N)=O)NC(=O)[C@H](C(C)C)NC(=O)[C@@H]2CCCN2C(=O)[C@H](CC(=O)O)NC(=O)[C@H](Cc2ccc(O)cc2)NC(=O)[C@H](CO)NC1=O [MP-1687] | – | ≥3.7 | half-life at 1 µM (in vitro; tissue homogenate): 0.617 h |
| CC[C@H](C)[C@@H]1NC(=O)[C@H](Cc2ccc(O)cc2)NC(=O)[C@H](CC(C)C)NC(=O)[C@]2(C)CCCN2C(=O)[C@H](NC(=O)[C@H](CCCNC(=N)N)NC(=O)[C@H](CCCNC(=N)N)NC(=O)[C@H](CCCCN=[N+]=[N-])NC(C)=O)CSCSC[C@@H](C(=O)N[C@@H](CCCNC(=N)N)C(=O)N[C@@H](CCCNC(=N)N)C(N)=O)NC(=O)[C@H](C(C)C)NC(=O)[C@@H]2CCCN2C(=O)[C@H](CC(=O)O)NC(=O)[C@H](Cc2ccc(O)cc2)NC(=O)[C@H](CO)NC1=O [Compound 14] | 2.37 | – | – |
| CC[C@H](C)[C@@H]1NC(=O)[C@H](Cc2ccc(O)cc2)NC(=O)[C@H](CC(C)C)NC(=O)[C@@H]2CCCN2C(=O)[C@H](NC(=O)[C@H](CCCCN=[N+]=[N-])NC(C)=O)CSCSC[C@@H](C(=O)N[C@@H](CCCNC(=N)N)C(N)=O)NC(=O)[C@H](C(C)C)NC(=O)[C@@H]2CCCN2C(=O)[C@H](CC(=O)O)NC(=O)[C@H](Cc2ccc(O)cc2)NC(=O)[C@H](CO)NC1=O [Compound 24] | – | >100 | activation of mast cell degranulation (histamine release), in words (rat mast cells): free from this potential liability |
| CC[C@H](C)[C@@H]1NC(=O)[C@H](Cc2ccc(O)cc2)NC(=O)[C@H](CC(C)C)NC(=O)[C@@H]2CCCN2C(=O)[C@H](NC(=O)[C@@H](CCCNC(=N)N)NC(=O)[C@@H](CCCNC(=N)N)NC(=O)[C@@H](CCCNC(=N)N)NC(=O)[C@@H](CCCNC(=N)N)NC(=O)[C@H](CCCCN=[N+]=[N-])NC(C)=O)CSCSC[C@@H](C(=O)N[C@H](CCCNC(=N)N)C(=O)N[C@H](CCCNC(=N)N)C(=O)N[C@H](CCCNC(=N)N)C(=O)N[C@H](CCCNC(=N)N)C(N)=O)NC(=O)[C@H](C(C)C)NC(=O)[C@@H]2CCCN2C(=O)[C@@H](CC(=O)O)NC(=O)[C@H](Cc2ccc(O)cc2)NC(=O)[C@H](CO)NC1=O [MP-9658, Ac-K(N3)-rrrr-cyclo(c(methylene)PLYISYdPVC)-rrrr-NH2] | – | – | inhibition of MAPK signaling in SK-MEL-28 [2]: inactive; inhibition of MAPK signaling in A375 [3]: inactive |
| CC[C@H](C)[C@@H]1NC(=O)[C@H](Cc2ccc(O)cc2)NC(=O)[C@H](CC(C)C)NC(=O)[C@@H]2CCCN2C(=O)[C@H](NC(=O)[C@H](CCCNC(=N)N)NC(=O)[C@H](CCCCN=[N+]=[N-])NC(C)=O)CSCSC[C@@H](C(=O)N[C@@H](CCCNC(=N)N)C(N)=O)NC(=O)[C@H](C(C)C)NC(=O)[C@@H]2CCCN2C(=O)[C@H](CC(=O)O)NC(=O)[C@H](Cc2ccc(O)cc2)NC(=O)[C@H](CO)NC1=O [MP-9903] | – | >100 | activation of mast cell degranulation (histamine release), in words (rat mast cells): free from this potential liability |
| CC[C@H](C)[C@@H]1NC(=O)[C@H](Cc2ccc(O)cc2)NC(=O)[C@H](CC(C)C)NC(=O)[C@@H]2CCCN2C(=O)[C@H](NC(=O)[C@H](CCCNC(=N)N)NC(=O)[C@H](CCCNC(=N)N)NC(=O)[C@H](CCCCN=[N+]=[N-])NC(C)=O)CSCSC[C@@H](C(=O)N[C@@H](CCCNC(=N)N)C(=O)N[C@@H](CCCNC(=N)N)C(N)=O)NC(=O)[C@H](C(C)C)NC(=O)[C@@H]2CCCN2C(=O)[C@H](CC(=O)O)NC(=O)[C@](C)(Cc2ccc(O)cc2)NC(=O)[C@H](CO)NC1=O [Compound 18] | 1.18 | – | – |
